Experimental data: publication PMC7865305, “Pseudopeptide Amyloid Aggregation Inhibitors: In Silico, Single Molecule and Cell Viability Studies” (International Journal of Molecular Sciences, 2021)
Square brackets hold non-standard residues; d marks the D form. Peptide text beside a SMILES is read from it. * marks the point of attachment. NMeF = CN[C@@H](Cc1ccccc1)C(=O)O; Myristoyl = CCCCCCCCCCCCCC(=O)*; NMeL = CN[C@@H](CC(C)C)C(=O)O; Orn = NCCC[C@H](N)C(=O)O; Dab = NCC[C@H](N)C(=O)O; βAla = NCCC(=O)O

What was measured:
HT22 cells [1] = type: cell-based, mouse; conditions: MTT; for HT22 cell viability with Aβ(1–42) and myristoylated inhibitor: 5 µM Aβ(1–42) with Myr-SG inhibitor, 24 h, Figure 7B, n = 3
Description: (§1) The MTT assay was used to evaluate the viability of HT22 cells exposed to inhibitor or mixtures of inhibitor with full length Aβ(1–42). HT22 cells were plated into 96-well cell culture plates at a cell density of 100,000 cells/mL in full growth media (DMEM/F12, with 10% FBS, 1% Pen/Strep) at 37°C, 5% CO2, until 80% confluence (20–22 h). Full growth media was exchanged for treatment media (containing Aβ or Aβ with SG inhibitor). After treatment, cells are then returned to incubator for 24 h. The media was then exchanged for phenol red-free DMEM/F12 containing 0.5 mg/mL MTT. Cells were returned to the incubator to metabolize the MTT for 3.5 h, after which, cells were solubilized in isopropanol, with 10% Triton X-100 and 0.1 M HCl. After solubilization, absorbance from the 96-well plates was read in Molecular Dynamics™ plate reader at 570 nm and 690 nm. The signal at 690 nm and media control was subtracted from the 570 nm reading prior to analysis. HT22 cells were a generous gift from Dr. Robert Cumming, PhD, University of Western Ontario.
Aβ(1–42) oligomers were prepared following protocols adapted from Stine et al.. Briefly, Aβ(1–42) was dissolved in HFIP to 1 mg/mL solution and aliquoted into microcentrifuge tubes, and allowed to evaporate under desiccant for 24 h, leaving behind a thin film of Aβ(1–42) monomers, which was stored at […] under desiccant. Immediately prior to use, Aβ(1–42) monomers were suspended in dimethyl sulfoxide (DMSO) at a concentration of 5 mM, vortexed for 30 s, pulse centrifuged for 30 s and then sonicated for 10 min at room temperature. The 5 mM Aβ(1–42) monomer solution prepared in DMSO was then diluted to 100 µM in cold DMEM/F12 media, then further diluted to 5 µM in fresh DMEM/F12 or DMEM/F12 containing SG inhibitor at various concentrations corresponding to a final ratio of 5:1, 2:1, 1:1 and 1:2 Aβ to SG. […]
Inhibitor toxicity to HT22 cells was assessed by treating cells with inhibitor (SGA1, Myr-SGA1, SGA3, Myr-SGA3 or SGC1) at concentrations of 2.5, 5.0 and 10.0 µM for 24 h in triplicates, for n = 4 repeats. […]

HT22 cells [2] = assay: SG inhibitor toxicity, MTT assay; type: cell-based, mouse; conditions: 24 h; for HT22 cell viability, inhibitor alone: HT22 cells, 2.5, 5.0 and 10.0 µM, MTT, n = 4, vs control, one-way ANOVA with Dunnett
Description: as §1
Inhibitor toxicity to HT22 cells was assessed by treating cells with inhibitor (SGA1, Myr-SGA1, SGA3, Myr-SGA3 or SGC1) at concentrations of 2.5, 5.0 and 10.0 µM for 24 h in triplicates, for n = 4 repeats. One-way ANOVA with Dunnett’s multiple comparisons test was performed to establish significance between inhibitor groups and vehicle-treated control, threshold for significance: α = 0.05. To assess SG inhibitor neuroprotection against Aβ(1–42) oligomers, Aβ(1–42) alone or Aβ(1–42) mixed with each inhibitor at the ratios described above were applied to cells in quadruplicates for n = 3 repeats. One-way ANOVA with Dunnett’s multiple comparisons was performed to establish significance between Aβ-SG inhibitor mixture and Aβ-treated control; threshold for significance: α = 0.05.

[3] = system: Aβ(1–42)-Aβ(1–42) dimerization; design: method as in 2 sources, ref [21] = [21]; PMID 24321883; doi:10.1016/j.bios.2013.10.060; 21. Hane F.T. Lee B.Y. Petoyan A. Rauk A. Leonenko Z. Testing synthetic amyloid-β aggregation inhibitor using single molecule atomic force spectroscopy Biosens. Bioelectron. 2014 54 492 498 10.1016/j. ||| ref [30] = [30]; PMID 28844735; doi:10.1016/j.bbapap.2017.07.022; 30. Robinson M. Mehrazma B. Opare S.K.A. Petoyan A. Lou J. Hane F.T. Rauk A. Leonenko Z. Pseudo-peptide Amyloid-β Blocking Inhibitors: Molecular Dynamics and Single Molecule Force Spectroscopy Study B; conditions: cited from earlier work; for Shift of Aβ binding probability across unbinding force distribution / Binding probability of Aβ: SMFS, ref [30]; for Binding probability of Aβ: no significant difference between inhibitors
Aβ(1–42) [4] = conditions: AFM, 110 μM Aβ(1–42), 1:1 ratio, 1, 6 and 24 h on mica, vs Aβ-only control; ref [21]; cited from earlier work
Description: In Hane et al., solutions of Aβ(1–42) (prepared by the Fezoui method) with and without SGA1 were deposited onto freshly cleaved mica at 1:1 ratio with a final concetration of 110 μM Aβ(1–42), and then incubated for 1, 6 and 24 h, before being washed, dried and than imaged by AFM (Figure 4, adapted with permission).

Aβ(1–40) = conditions: ThT fluorescence, 25 μM Aβ(1–40), 37 °C, 5 to 7 days; ref [33]; cited from earlier work
Description: Experimental validation of the effect of SGA1 on amyloid aggregation and structure was performed previously by several methods: including ThT fluorescence, circular dichroism (CD), Western blot and AFM imaging. The influence of SGA1 on Aβ(1–40) and Aβ(1–42) aggregation by ThT fluorescence assay was performed at a concentration of 25 μM Aβ(1–40) and Aβ(1–42) at 37 °C for 5 to 7 days, across a broad range of SG inhibitor concentration to determine the IC50 inhibitory ligand:Aβ ratio [33]. For SGA1, the IC50 ligand:Aβ(1–40) ratio occurred at 0.2, while the control, N-methylated KLVFF peptide (A ...

Aβ(1–42) [5] = conditions: ThT fluorescence, 25 μM Aβ(1–42), 37 °C, 5 to 7 days; ref [33]; cited from earlier work
Description: Experimental validation of the effect of SGA1 on amyloid aggregation and structure was performed previously by several methods: including ThT fluorescence, circular dichroism (CD), Western blot and AFM imaging. The influence of SGA1 on Aβ(1–40) and Aβ(1–42) aggregation by ThT fluorescence assay was performed at a concentration of 25 μM Aβ(1–40) and Aβ(1–42) at 37 °C for 5 to 7 days, across a broad range of SG inhibitor concentration to determine the IC50 inhibitory ligand:Aβ ratio [33].

| Compound | HT22 cell viability with Aβ(1–42) and myristoylated inhibitor (HT22 cells [1]) | IC50 (HT22 cells [2]) [µM] | HT22 cell viability, inhibitor alone (HT22 cells [2]) | Shift of Aβ binding probability across unbinding force distribution [3] | Binding probability of Aβ [3] | Fibril length of Aβ(1–42) aggregates (Aβ(1–42) [4]) | IC50 ligand:Aβ(1–40) ratio (Aβ(1–40)) | IC50 inhibitory ligand/Aβ1–42 ratio (Aβ(1–42) [5]) | Number of Aβ binding events ([3]; SMFS proof-of-concept study, ref [21]) | Effect on Aβ(1–42) toxicity (HT22 cells [1]; 5 µM Aβ(1–42), Aβ/SG 5:1, 2:1, 1:1, 1:2, 24 h, n = 3, vs Aβ-treated group) |
| --- | --- | --- | --- | --- | --- | --- | --- | --- | --- | --- |
| CCCCCCCCCCCCCC(=O)N[C@@H](CCN)C(=O)N[C@@H](CCCN)C(=O)N(C)[C@@H](CC(C)C)C(=O)N[C@@H](Cc1ccccc1)C(=O)N(C)[C@@H](Cc1ccccc1)C(=O)N[C@@H](CC(C)C)C(=O)N1CCC[C@H]1C(=O)NCCC(=O)O [Myr-SGA1] (Myristoyl-[Dab][Orn][NMeL]F[NMeF]LP[βAla]-OH; N-terminus and C-terminus assumed) | below 30% | ~7.5 | significant reductions in HT22 cell viability at 5 and 10 µM | decreased the binding probability at higher force | reduced the binding probability of Aβ |  |  |  |  |  |
| CCCCCCCCCCCCCC(=O)N[C@@H](CCN)C(=O)N[C@@H](CCCN)C(=O)N(C)[C@@H](CC(C)C)C(=O)N[C@@H](Cc1ccccc1)C(=O)N(C)[C@@H](Cc1ccccc1)C(=O)N[C@@H](CC(C)C)C(=O)N[C@@H](C)C(=O)N[C@@H](CCC(=O)O)C(N)=O [Myr-SGA3] (Myristoyl-[Dab][Orn][NMeL]F[NMeF]LAE-NH2; C-terminus assumed) | below 30% | ~7.5 | significant reductions in HT22 cell viability at 5 and 10 µM |  |  |  |  |  |  |  |
| CC(=O)N[C@@H](CCN)C(=O)N[C@@H](CCCN)C(=O)N(C)[C@@H](CC(C)C)C(=O)N[C@@H](Cc1ccccc1)C(=O)N(C)[C@@H](Cc1ccccc1)C(=O)N[C@@H](CC(C)C)C(=O)N1CCC[C@H]1C(=O)NCCC(=O)O [SGA1] (Ac-[Dab][Orn][NMeL]F[NMeF]LP[βAla]-OH; N-terminus and C-terminus assumed) |  |  | no significant reduction in cell viability was observed |  |  | greatly reduced | 0.2 | 0.5 | decreases the number Aβ binding events in a concentration dependent manner |  |
| CC(=O)N[C@@H](CCN)C(=O)N[C@@H](CCCN)C(=O)N(C)[C@@H](CC(C)C)C(=O)N[C@@H](Cc1ccccc1)C(=O)N(C)[C@@H](Cc1ccccc1)C(=O)N[C@@H](CC(C)C)C(=O)N[C@@H](C)C(=O)N[C@@H](CCC(=O)O)C(N)=O [SGA3] (Ac-[Dab][Orn][NMeL]F[NMeF]LAE-NH2; N-terminus and C-terminus assumed) |  |  | no significant reduction in cell viability was observed | more uniformly reduced binding probability across the unbinding force distribution | reduced the binding probability of Aβ |  |  |  |  |  |
| Glu-Ala-(Me)Phe-Phe-(Me)Phe-Leu-Orn-Daba [SGC1] |  |  |  | increased the binding probability at higher force | reduced the binding probability of Aβ |  |  |  |  | no statistically significant effect |
